The values that follow come from US12411142B2, “Method for measuring the trimethylamine n-oxide production capacity in an individual” (NATIONAL TAIWAN UNIVERSITY, priority 2018, dated 2025).

The nature of this data set: Pharmacokinetic study of the oral carnitine challenge test (OCCT). The class given is in vivo, human. Conditions: 13 volunteers. Here is the method: Oral carnitine challenge test (OCCT): All the participants fasted overnight (>8 hours) before the OCCT. Fasting blood and spot urine samples were collected as baseline, and three tablets of L-carnitine fumarate (GNC) were then administered orally to the participants. Subsequently, the participants underwent time-series blood drawings with concurrent spot urine collections at 24 hours and 48 hours after the oral carnitine challenge. The participants were requested to provide urine samples within 2 hours of blood sample collections. All the participants were asked to avoid red meat, seafood and any medication during the period of the carnitine challenge test. The plasma and urine samples were aliquoted after centrifugation at 3000 rpm and stored in a freezer at −20° C. Ten carnitine tablets (GNC) were examined through HPLC to verify the amount of L-carnitine used in the OCCT. The mean dose of carnitine fumarate in each tablet was 693.5 (SD±63.2) mg (≈400 mg L-carnitine/tablet).
Pharmacokinetic study of plasma TMAO by oral administration of carnitine: Thirteen independent volunteers were recruited for a pharmacokinetic study of the OCCT. After the oral carnitine challenge, blood samples were collected at 4, 8, 12, 24, 36 and 48 hours. Six of the volunteers agreed to participate in the same pharmacokinetic test again 3 months later. All the volunteers signed informed consent waivers provided by the Institutional Review Board of National Taiwan University Hospital.
Plasma TMAO peaked in the interval between 24 hours and 48 hours of the OCCT: This example assumed that TMAO formation in blood occurred at approximately 24 hours of the OCCT based on the time required for bowel transit, microbial catabolism and the enzymatic reaction of hepatic FMO3 to convert the ingested carnitine into plasma TMAO. The example performed a pharmacokinetic study of the OCCT to confirm this hypothesis (FIG. 4). In the study, 13 participants received seven blood tests at indicated time points after ingestion of three tablets of L-carnitine fumarate (General Nutrition Centers (GNC), Pennsylvania, USA). […]

Setting [1] is: three tablets of L-carnitine fumarate orally.

For `C[N+](C)(C)C[C@H](O)CC(=O)[O-].O=C(O)/C=C/C(=O)O` [L-carnitine fumarate], under “three tablets of L-carnitine fumarate (GNC, approximately 1200 mg L-carnitine) orally”, the “time at which plasma carnitine level peaked after OCCT” value is 4 h. Besides, under setting [1], the “plasma TMA level after OCCT” value is “very low concentration” and the “plasma γ-butyrobetaine level after OCCT” value is listed as “very low concentration”.
